Assay results as given in PMC4440816, “Positron Emission Tomography studies with [^11C]PBR28 in the Healthy Rodent Brain: Validating SUV as an Outcome Measure of Neuroinflammation” (PLoS ONE, 2015).
“And” between values parts separate entries of the source, which are not always exact repeats. Equal entries are not always repeated. One block for each compound: values may come before it.

Experiments:
TSPO = details: cited from earlier work
[1] = target: T1, 18 kD Translocator protein (TSPO) (Rattus norvegicus, UniProt P16257); test: Dynamic PET with arterial sampling; VT by 2-TCM and Logan graphical analysis, compared with SUV; assay type: in vivo, Wistar rats; details: for VT 2-TCM / VT Logan: n = 3; for VT Logan: t* = 21 min
T1 construct: from tissue; host or cells: brain of living healthy male Wistar rats (in vivo PET)
Procedure: (§1) The study was divided in two parts. In the first part arterial sampling was performed in four rats to allow for quantification of [^11C]PBR28 binding and comparison with the SUV. In the second part four rats and four mice were used to determine the test-retest variability of the SUV, with a 7-day interval between the scans.
(§2) The animals were anesthetized with isoflurane (induction 4–5% mixed with oxygen and maintenance 1.5–2% mixed with air/oxygen (50/50)) at a flow rate of 1 L/min and a cannula was inserted into the tail vein for the injection of [^11C]PBR28. After the cannulation, the rats were positioned into the nanoScan PET/MRI or nanoScan PET/CT (Mediso Ltd., Budapest, Hungary) in a transaxial position with their heads in the centre of the field of view. A bolus injection of [^11C]PBR28 was given via the canula in the tail vein at start of the PET measurement. The injection was followed by a saline flush. An emission scan of 63 minutes was acquired for all animals. The average injected radioactivity was 23 ± 5 MBq for the rats and 9.9 ± 1.6 MBq for the mice. The injected mass was 0.05 ± 0.03 μg (n = 8) in rats and 0.011 ± 0.011 μg (n = 8) in mice.
(§3) The PET data was acquired in list mode and was reconstructed into 25 timeframes (4x10 s, 4x20 s, 4x60 s, 7x180 s, 6x360 s) with MLEM reconstruction (20 iterations). Image data were not corrected for attenuation or scatter. For each animal a T1-weighted MRI scan (Isotropic FSE sequence, TR/TE: 2000/84.1) was made for anatomical reference.
(§4) Arterial blood sampling was performed during the PET scan in the first group of four rats. In addition to the insertion of the cannula in the tail vein, another cannula was inserted into the femoral artery. For the rats, sixteen arterial blood samples of 0.1 ml were taken for measurement of radioactivity in plasma and blood using a gamma counter. Four samples of 0.5 ml blood were taken for radiometabolite analysis at 4, 20, 40 and 60 minutes after injection.
(§5) The reconstructed dynamic PET measurements were manually aligned with the corresponding MRI scans. The MRI and PET scans were then normalized to the rat or mice brain MRI template available in PMOD (PMOD 3.2 Zurich, Switzerland). Eight regions of interest were defined using the available template in PMOD, i.e. the striatum, hippocampus, hypothalamus, midbrain, thalamus, cerebral cortex, brainstem and cerebellum. Time-activity curves were generated for each region of interest. For all animals the regional brain uptake values were expressed as SUV and were calculated for 57–63 minute after injection, i.e. the last time-frame. The time used for calculating the SUV was based on the tissue-to-plasma ratio obtained from the first part of the study. From 15–50 minutes the tissue-to-plasma ratio is declining, and the estimated equilibrium state is reached at 50–60 minutes after injection. However, it can be beneficial for future studies to use a shorter scan time, i.e. to allow for scanning of more animals per batch of [^11C]PBR28 and to improve counting statistics. The SUV was therefore also calculated for the time-frame of 39–45 minute after injection, In both cases the SUV was calculated according to Eq 1, and it was assumed that 1 cm^3 of brain tissue equals 1 g.
(§6) SUV=tissue activity concentration(Bq/cm3)/injected dose(Bq)/body weight(g) (1)
For the first groups, the arterial samples and percentage of metabolites were used to determine the metabolite corrected plasma-input function. Two-tissue compartment modelling (2-TCM) and Logan graphical analysis were used to calculate the volume of distribution (VT), using the metabolite corrected plasma curve as input. For the Logan analysis data was fitted from 21 minutes after injection (t* = 21 min).

[2] = Radiometabolite analysis of plasma by radio-HPLC; assay type: in vivo, Wistar rats
Procedure: as §4
To determine the percentages of radioactivity in plasma that corresponded to unchanged [^11C]PBR28 and its radioactive metabolites, reversed-phase HPLC was used. Plasma obtained after centrifugation of 0.5 ml blood at 2,000 g for 2–4 min was mixed with acetonitrile (0.35 ml) and centrifuged for 4 min. The acetonitrile extraction ratio was 93.5% ± 1.8% at 4 min, 87.8% ± 0.5% at 20 min, 85.2% ± 1.1% at 40 min and 78.9% ± 2.4% at 60 min. The supernatant was mixed with 2 ml of water and analysed using radio-HPLC. The radio-HPLC system used consisted of an interface module (D-7000; Hitachi: Tokyo, Japan), a L-7100 pump (Hitachi), an injector (model 7125, with a 5.0-mL loop; Rheodyne: Cotati, USA) equipped with a μ-Bondapak C18 column (300 x 7.8 mm, […]; Waters: New England, USA), and an ultraviolet absorption detector (L-7400, 254 nm; Hitachi) in series with a 150TR; Packard (housed in a shield of 50 mm thick lead) equipped with a 550 μL flow cell. Acetonitrile (A) and ammonium formate (100 mM) (B) were used as the mobile phase at 6.0 mL/min, according to the following gradient: 0–4 min (A/B), 40:60 → 80:20 v/v; 4.1–6 min(A/B), 80:20 v/v; 8 min (A/B), 40:60 v/v. Peaks for radioactive compounds eluting from the column were integrated and their areas were expressed as a percentage of the sum of the areas of all detected radioactive compounds (decay-corrected to the time of injection on the HPLC).

[3] = target: T2, 18 kD Translocator protein (TSPO) (Mus musculus, UniProt P50637); test: Small animal PET brain uptake (SUV) and test-retest, mice; assay type: in vivo, C57BL/6J mice; details: for ICC of SUV / TRV of SUV: Mice, SUV 57–63 min, 7-day interval
T2 construct: from tissue; host or cells: brain of living healthy male C57BL/6J mice (in vivo PET)
Procedure: as §1, §2, §3, §5, §6
(§7) For the test-retest study the test-retest variability was calculated using Eq 2.
(§8) TRV=|test value−retest value|/(test value+retest value)/2*100 (2)
(§9) Additionally the […] correlation coefficient (ICC) was calculated as an index of the reliability of the test-retest measurement using Eq 3, where MS = mean sum of squares, BS = between-subjects, WS = within-subjects, and df = degrees of freedom. It combines the information of the difference between and within the test and retest scan. The ICC values were interpreted as follows: 0–0.2 indicated slight agreement, 0.3–0.4 indicated fair agreement, 0.5–0.6 indicated moderate agreement, 0.7–0.8 indicated substantial agreement, and >0.8 indicated almost perfect agreement between the test and retest measures.
(§10) ICC=MSBS−MSWS/MSBS+(dfWS*MSWS) (3)

[4] = Arterial blood and plasma radioactivity (gamma counter); assay type: in vivo, Wistar rats; details: rats; for plasma/blood ratio of radioactivity: average
Procedure: as §4

[5] = target: T1, 18 kD Translocator protein (TSPO); test: Small animal PET brain uptake (SUV) and test-retest, rats; assay type: in vivo, Wistar rats; details: for ICC of SUV / TRV of SUV: Rats, SUV 57–63 min, 7-day interval
Procedure: as §1, §2, §3, §5, §6, §7, §8, §9, §10

[6] = rats, eight brain regions, SUV 57–63 min
[7] = rats, 4 minutes after injection

SMILES: CCC(C)N([11CH3])C(=O)c1cc2ccccc2c(-c2ccccc2Cl)n1 (centres unmarked) [[^11C]PK11195]
- non-specific binding (TSPO): high level of non-specific binding

- VT 2-TCM ([1]; Brainstem, rats): 56.7
- VT Logan ([1]; Brainstem, rats): 49.7
- VT 2-TCM ([1]; Cerebellum, rats): 63.6
- VT Logan ([1]; Cerebellum, rats): 54.0
- VT 2-TCM ([1]; Cerebral cortex, rats): 45.3
- VT Logan ([1]; Cerebral cortex, rats): 41.5
- VT 2-TCM ([1]; Hippocampus, rats): 41.1
- VT Logan ([1]; Hippocampus, rats): 38.7
- VT 2-TCM ([1]; Hypothalamus, rats): 58.3
- VT Logan ([1]; Hypothalamus, rats): 51.3
- VT 2-TCM ([1]; Midbrain, rats): 40.9
- VT Logan ([1]; Midbrain, rats): 36.2
- VT 2-TCM ([1]; Striatum, rats): 37.4
- VT Logan ([1]; Striatum, rats): 34.5
- VT 2-TCM ([1]; Thalamus, rats): 35.8
- VT Logan ([1]; Thalamus, rats): 34.2
- SUV of sampled rats higher than SUV of non-sampled rats ([1]; data not shown): about 30%
- total (whole) brain VT, Logan analysis ([1]; rats, average): 42.9 ± 1.7 and 43.1
- total brain VT, 2-TCM ([1]; rats, average): 47.3
- correlation (r^2) between average VT (2-TCM) and average SUV [1, 6]: 0.92
- correlation (r^2) between average VT (Logan) and average SUV [1, 6]: 0.94
- metabolism in rats ([2]; plasma): rapidly metabolized
- fraction metabolized [2, 7]: about 60%
- parent compound left in plasma [2, 7]: 40.7 ± 9.0%
- parent compound left in plasma ([2]; rats, 20 minutes after injection): 8.2 ± 2.6%
- parent compound left in plasma ([2]; rats, 40 minutes after injection, n = 1): 3.7%
- parent compound left in plasma ([2]; rats, 60 minutes after injection): 2.9 ± 1.5%
- ICC of SUV ([3]; Brainstem): 0.31
- TRV of SUV ([3]; Brainstem): 13.2
- ICC of SUV ([3]; Cerebellum): 0.29
- TRV of SUV ([3]; Cerebellum): 13.7
- TRV of SUV ([3]; Cerebral cortex): 13.4
- ICC of SUV ([3]; Hippocampus): 0.32
- TRV of SUV ([3]; Hippocampus): 6.9 ± 4.7 and 6.9
- ICC of SUV ([3]; Hypothalamus): 0.01
- TRV of SUV ([3]; Hypothalamus): 23.0
- ICC of SUV ([3]; Midbrain): 0.02
- TRV of SUV ([3]; Midbrain): 15.1
- TRV of SUV ([3]; Striatum): 23.6 ± 15.6 and 23.6
- ICC of SUV ([3]; Thalamus): 0.71
- TRV of SUV ([3]; Thalamus): 7.6
- time of maximum total brain uptake (SUV) after injection ([3]; mice, i.v. bolus): around 1 min
- plasma/blood ratio of radioactivity ([4]; 20 seconds after injection): 0.2
- plasma/blood ratio of radioactivity ([4]; 60 minutes after injection): 1.0
- time of peak uptake in blood and plasma after injection ([4]; arterial samples): around 20 seconds
- ICC of SUV ([5]; Brainstem): 0.58
- TRV of SUV ([5]; Brainstem): 17.7
- ICC of SUV ([5]; Cerebellum): 0.72
- TRV of SUV ([5]; Cerebellum): 11.5
- ICC of SUV ([5]; Cerebral cortex): 0.81
- TRV of SUV ([5]; Cerebral cortex): 16.7
- ICC of SUV ([5]; Hippocampus): 0.88
- TRV of SUV ([5]; Hippocampus): 7.7 ± 3.5 and 7.7
- ICC of SUV ([5]; Hypothalamus): 0.59
- TRV of SUV ([5]; Hypothalamus): 20.4 ± 15.4 and 20.4
- ICC of SUV ([5]; Midbrain): 0.86
- TRV of SUV ([5]; Midbrain): 12.3
- ICC of SUV ([5]; Striatum): 0.69
- TRV of SUV ([5]; Striatum): 13.6
- ICC of SUV ([5]; Thalamus): 0.71
- TRV of SUV ([5]; Thalamus): 13.7
- time of maximum total brain uptake (SUV) after injection ([5]; non-sampled rats, i.v. bolus): around 1 min
SMILES: CC(=O)N(Cc1ccccc1O[11CH3])c1ccc(Oc2ccccc2)nc1 [[^11C]PBR28, N-acetyl-N-(2-[^11C]methoxybenzyl)-2-phenoxy-5-pyridinamine]
- affinity for the TSPO (TSPO): high affinity
- specific binding compared with [^11C]PK11195 (TSPO): higher specific binding
